# Assay results taken from patent publication US11707557B2, “Compositions and devices incorporating water-insoluble therapeutic agents and methods of the use thereof” (COOK MEDICAL TECHNOLOGIES LLC, priority 2014, dated 2023).
# What was measured:
# [1] = 24 h
# Protocol: PBS (EGCG) or water (tannic acid) was added and the final solution filtered through a 0.22 micron filter to remove any particulates. The solutions were analyzed for drug concentration using HPLC.
# PBS (EGCG) or water (tannic acid) was added and the final solution filtered through a 0.22 micron filter to remove particulates. The solution was then analyzed for drug concentration using absorbance spectroscopy at 450 nm.
# PBS (EGCG) or water (tannic acid) was added and the final solution was filtered through a 0.22 micron filter to remove any particulates and the solution was analyzed for drug concentration using HPLC.
# PBS (EGCG) or water (tannic acid) was added and the final solution filtered through a 0.22 micron filter to remove any particulates and the solution was analyzed for drug concentration using HPLC.
# PBS (EGCG) or water (Tannic acid) was added and the final solution was filtered through a 0.22 um filter to remove any particulates and the solution was analyzed for drug concentration using HPLC.
# Method: drug and EGCG or tannic acid were dried down from acetonitrile (or methanol for tannic acid) solutions at various drug to EGCG or tannic acid ratios. PBS (EGCG) or water (Tannic acid pH adjusted to 7) was added and the final solution was filtered through a 0.22 um filter to remove any particulates and the solution was analyzed for drug concentration using HPLC methods.
# [2] = test system: fresh rat aorta artery; assay: Paclitaxel uptake into artery tissue from coated balloon catheter; assay type: in vitro ADME; conditions: for available paclitaxel taken up by the artery / available paclitaxel washed out from the artery: ignoring catheter residual and gloves wash
# Protocol: A 2-3 cm strip of fresh rat aorta artery was placed over a 200 microliter pipette tip and fed onto the deflated balloon catheter to mimic the feeding of the balloon into the blood vessel. The balloon was then inflated and the system was left for 2 minutes at 37° C. in a bath of Hanks buffered salt solution (HBSS). The balloon was then deflated and 300 microliters of HBSS pipetted into the artery and the wash out collected in a centrifuge tube. This wash step was repeated three times. Because the handler's gloves were moist and had contacted the balloon (and therefore absorbed some EGCG/drug) the gloves fingers were washed extensively in 100 ml of HBSS.
# The aorta tissue was placed in 500 microliters of tissue solubilizer and left at 60° C. for 4 hours to digest. The contents were then placed in a scintillation counter. The deployed catheter balloon was observed after the procedure. Some of the balloon had not deployed (the balloon was tight in the aorta and not fully inflated) and traces of the reddish colored EGCG/drug could be observed in the folds. […] The catheter balloon was then inflated in 5 ml of acetonitrile to recover the undissolved EGCG and measured by scintillation counting. All other fractions (aorta wash and gloves wash were also counted. These four fractions (aorta, gloves, catheter residual and aorta wash) accounted for all drug and the total scintillation count form everything was taken and 100% of the applied drug.
# A balloon catheter was inflated and revolved along its horizontal axis. The drug/EGCG solution was slowly pipetted onto the balloon using 25 microliters at a time and dried with gentle heat from an electric blowdryer. A 2-3 cm strip of fresh rat aorta artery was placed over a 200 microliter pipette tip and fed onto the deflated balloon catheter to mimic the feeding of the balloon into the blood vessel. The balloon was then inflated and the system was sonicated for 2 minutes at 37° C. in Hanks buffered salt solution (HBSS) (4 MHz, 30 watts/cm2). The balloon was then deflated and 300 microl of (HBSS) was pipetted into the artery and the wash out collected in a centrifuge tube. This wash step was repeated three times. Samples were collected as in the previous example.
# A balloon catheter was inflated and revolved along its horizontal axis. The drug/diblock solution was slowly pipetted onto the balloon using 25 microliters at a time and dried with gentle heat from an electric blowdryer. […] A 2-3 cm strip of fresh rat aorta artery was placed over a 200 ul pipette tip and fed onto the deflated balloon catheter to mimic the feeding of the balloon into the blood vessel. The system was then immersed in Hanks buffered salt solution (HBSS) at 37° C. for 2 minutes.
# A balloon catheter was inflated and revolved along its horizontal axis. The drug/tannic acid solution was slowly pipetted onto the balloon using 25 microliters at a time and dried with gentle heat from an electric blowdryer.
smiles,measurement,setting,value
CC(=O)O[C@H]1C(=O)[C@@]2(C)[C@H]([C@H](OC(=O)c3ccccc3)[C@]3(O)C[C@H](OC(=O)[C@H](O)[C@@H](NC(=O)c4ccccc4)c4ccccc4)C(C)=C1C3(C)C)[C@]1(OC(C)=O)CO[C@@H]1C[C@@H]2O [paclitaxel],stability of EGCG solutions of the drug,[1],not stable over 24 hours
same,stability of tannic acid solutions of the drug,[1],stable for 24 hours
same,total paclitaxel associated with the artery,"[2]; EGCG coating (30 mg EGCG, 300 microgram drug), 2 minutes 37° C.",More than 50%
same,total paclitaxel washed out of the artery,[2]; EGCG coating with ultrasound,2%
same,total paclitaxel associated with the artery,"[2]; EGCG coating with ultrasound (4 MHz, 30 watts/cm2), 2 minutes",More than 50%
same,available paclitaxel taken up by the artery,[2]; EGCG coating with ultrasound,approximately 95%
same,available paclitaxel washed out from the artery,[2]; EGCG coating with ultrasound,less than 5%
same,total paclitaxel washed out of the artery,"[2]; EGCG coating, 2 minutes 37° C.",2%
same,available paclitaxel taken up by the artery,[2]; EGCG coating,approximately 95%
same,available paclitaxel washed out from the artery,[2]; EGCG coating,less than 5%
same,total paclitaxel washed out of the artery,[2]; diblock copolymer coating,less than 2%
same,total paclitaxel associated with the artery,"[2]; diblock copolymer coating (6 mg), 2 minutes",Approximately 10%
same,residual on the catheter,[2]; tannic acid coating,approximately 29%
same,total paclitaxel associated with the artery,[2]; tannic acid coating,Approximately 40%
same,total paclitaxel washed out of the artery,[2]; tannic acid coating,less than 1%
same,available drug transferred to the tissues,"[2]; tannic acid coating, ignoring drug on catheter and gloves",over 95%
